# Results reported in EP4772500A1, “NOVEL ISOXAZOLE COMPOUND AS TM4SF5-SPECIFIC INHIBITOR AND USE THEREOF” (Seoul National University R&DB Foundation, priority 2023, dated 2025).
# Legend:
# SNU449-TM4SF5 cells = assay: qRT-PCR of cytokines/chemokines, fibrosis and T/NK cell related factors; assay type: cell-based, human; conditions: 2.5 µM, 24 hours, SNU449-TM4SF5 (FIG. 8e-g)
# Method: After disrupting cells or tissues using Qiazol (Qiagen, USA), chloroform was added thereto, and centrifugation was performed at 12,000x g and 4°C for 15 minutes for phase separation, followed by separating the upper […] layer. After adding isopropanol to the separated […] layer to precipitate RNA, it was washed with 70% ethanol. An RNA pellet was separated by centrifugation at 7,500x g for 5 minutes, and ethanol was evaporated for 10 minutes, followed by solubilization in 30 µl of DEPC-water. The solubilized RNA was reverse-transcribed using a reverse transcription kit (Toyobo, Japan) after removing gDNA to obtain cDNA. For the obtained cDNA, expression was measured by real-time PCR (Bio-Rad, USA) using 2x Eva green master mix (Labopass, Republic of Korea) and 0.4 µM forward/reverse primers. The expression level was calculated using Pfaffl's modified delta-delta Ct method.
# Normal 22-week-old C57BL/6 mice were randomly divided into a normal chow diet (NCD) group and a Methionine-Choline Deficient (MCD) diet group, which is a non-alcoholic steatohepatitis (NASH) induction diet, with 3 to 6 mice per group, and were allowed free access to the diets for 4 weeks. Simultaneously, vehicle (DMSO) or ST-2-001 at a concentration of 5 mg/kg was treated twice a week per animal via intraperitoneal injection (IP). […]
# SNU449T7 cells = assay: Liver-orthotopic xenograft model of TM4SF5-expressing cell line; assay type: in vivo, BALB/c-Nude mice
# Method: The next day, the cells were detached by treating with a T/E (Trypsin/EDTA) solution and centrifuged at 150x g for 3 minutes to obtain a pellet. Thereafter, the supernatant was removed, leaving only the pellet. After mixing with matrigel matrix (CORNING) such that the final concentration of EGF was 50 ng/µl, the cell pellet was prepared by resuspension in the mixture of EGF and matrigel. Then, 5x10^5 cells/20 µl were directly injected once into the liver of 6-week-old male BALB/c-Nude mice. At this time, the animals were anesthetized by inhalation with […] isoflurane and injected. From one week after the cell injection, drug ST-5-002 was intraperitoneally injected at 5 mg/kg twice a week. After injecting the drug for a total of 6 times over 3 weeks, the animals were sacrificed at the 4th week of cell injection, and liver tissues were obtained and analyzed.
# (a-d) A liver-orthotopic xenograft model was established by directly injecting 5x10^5 SNU449T7 cells into the livers of 6-week-old male BALB/c-Nude mice (n=9), which are deficient in T and B cells but still capable of activating NK cell functions. Starting one week after the cell injection, the drug ST-5-002 was intraperitoneally injected at 5 mg/kg twice a week (a). After a total of 6 injections over 3 weeks, the animals were sacrificed at the 4th week of cell injection, and liver tissues were obtained and images of the livers were taken (b). Body weight was measured every week during the drug injections. Meanwhile, although cancer formation occurred in several places in the liver tissue, the cancer masses were […], and since it was practically difficult to measure the size or volume of small cancer masses due to time constraints for tissue specimen processing, the volume of the largest cancer mass was measured for each liver tissue. The tumor volumes calculated from n=7 liver tissues, excluding the maximum and minimum values, are shown (c). (d) For a portion of the liver tissues, the expression level, distribution, and localization of each factor, as well as the degree of damage to the liver cancer tissue, were confirmed through immunohistochemistry or H&E staining for the given protein factors.
# (a-b) As in FIG. 20, a liver-orthotopic xenograft model was established by directly injecting 5x10^5 SNU449T7 cells into the livers of 6-week-old male BALB/c-Nude mice (n=9), which are deficient in T and B cells but still capable of activating NK cell functions. Starting one week after the cell injection, the drug ST-5-002 was intraperitoneally injected at 5 mg/kg twice a week. (b-d) After the end of the experiment, for a portion of the obtained liver tissues, the expression level, distribution, and localization of SLAMF7, SLAMF6, NKG2D, PD-L1, and PD-1 factors, as well as the degree of liver cancer tissue, were confirmed through immunohistochemistry.
# [1] = mouse xenograft experiment, liver tissue extracts, Western blotting (FIG. 13e)
SMILES,"mRNA levels of inflammation-related cytokines/chemokines, liver fibrosis factors, and factors related to T cell or NK cell natural killer activation (SNU449-TM4SF5 cells)","inhibitory effect on liver cancer formation (SNU449T7 cells; 5 mg/kg IP twice a week, 6 times, images (FIG. 20b))",distribution of cells highly expressing PD-L1 (SNU449T7 cells; immunohistochemistry (FIG. 22e)),infiltration of PD-1-expressing cells (SNU449T7 cells; immunohistochemistry (FIG. 22d)),"expressions of Ki67, AFP, F4/80, CCL2 and CCL20, and laminin γ2 (SNU449T7 cells; immunohistochemistry of liver tissue (FIG. 20d))","distribution of cells highly expressing SLAMF7 (SNU449T7 cells; immunohistochemistry, interface of small tumors (FIG. 22b))","degree of staining for SLAMF6 and NKG2D (SNU449T7 cells; immunohistochemistry, small cancerous areas (FIG. 22c))","tumor volume (SNU449T7 cells; largest cancer mass per liver, 28th day, vs vehicle (FIG. 20c))",SLAMF6 expression (SNU449T7 cells; [1]),TIGIT expression level (SNU449T7 cells; [1])
"COc1ccc(-c2cc(-c3ccc(NC(C)=O)cc3)no2)cc1 [ST-2-001, N-(4-(5-(4-methoxyphenyl)isoxazole-3-yl)phenyl)acetamide]",inhibited,–,–,–,–,–,–,–,–,–
"Cc1ccc(C(=O)Nc2ccc(-c3cc(-c4ccc(O)cc4)no3)cc2)cc1 [ST-5-002, N-(4-(3-(4-hydroxyphenyl)isoxazole-5-yl)phenyl)-4-methylbenzamide]",–,distinct,scattered and distributed at a low level inside the tumor,scattered and distributed without restriction,significantly lower,infiltrated and were distributed or localized inside the tumor,further increased inside the tumor area,significantly reduced,increased,lowered
